Source: the Kinase Knowledgebase extract (Sharma et al. 2016)

biological target: EGFR (human) (UniProt P00533); conditions: hn5
Sequence (P00533 whole entry, looked up): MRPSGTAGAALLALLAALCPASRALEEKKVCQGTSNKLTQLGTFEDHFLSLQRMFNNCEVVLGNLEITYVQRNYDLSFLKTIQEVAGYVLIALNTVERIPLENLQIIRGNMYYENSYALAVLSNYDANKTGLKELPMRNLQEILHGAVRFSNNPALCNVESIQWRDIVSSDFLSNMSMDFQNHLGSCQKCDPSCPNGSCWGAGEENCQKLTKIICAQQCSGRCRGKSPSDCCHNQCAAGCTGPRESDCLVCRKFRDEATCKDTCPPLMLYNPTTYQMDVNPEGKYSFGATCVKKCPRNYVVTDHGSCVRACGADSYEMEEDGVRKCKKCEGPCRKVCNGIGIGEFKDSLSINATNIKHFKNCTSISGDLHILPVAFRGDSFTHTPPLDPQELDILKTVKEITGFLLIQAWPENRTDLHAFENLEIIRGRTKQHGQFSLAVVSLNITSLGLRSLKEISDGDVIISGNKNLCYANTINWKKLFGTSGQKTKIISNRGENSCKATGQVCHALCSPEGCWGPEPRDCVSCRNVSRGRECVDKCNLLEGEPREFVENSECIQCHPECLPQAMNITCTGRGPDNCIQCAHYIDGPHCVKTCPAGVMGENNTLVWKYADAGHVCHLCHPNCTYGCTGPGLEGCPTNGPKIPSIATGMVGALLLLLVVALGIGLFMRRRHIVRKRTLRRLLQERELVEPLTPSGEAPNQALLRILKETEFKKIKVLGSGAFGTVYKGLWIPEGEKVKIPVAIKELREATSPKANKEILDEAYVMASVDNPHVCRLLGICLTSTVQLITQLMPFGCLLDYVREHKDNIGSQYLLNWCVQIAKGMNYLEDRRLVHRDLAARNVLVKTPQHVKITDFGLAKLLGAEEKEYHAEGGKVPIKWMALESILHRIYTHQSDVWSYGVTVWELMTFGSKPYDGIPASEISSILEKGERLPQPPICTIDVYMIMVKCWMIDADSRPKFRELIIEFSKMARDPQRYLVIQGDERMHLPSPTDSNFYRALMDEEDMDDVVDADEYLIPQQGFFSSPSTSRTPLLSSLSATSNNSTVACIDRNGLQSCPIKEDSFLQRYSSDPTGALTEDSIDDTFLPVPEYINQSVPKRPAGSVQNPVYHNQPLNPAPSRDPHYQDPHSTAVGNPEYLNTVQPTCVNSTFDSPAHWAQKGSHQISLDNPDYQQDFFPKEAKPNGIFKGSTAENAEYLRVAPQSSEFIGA

| SMILES | IC50 [µM] |
| --- | --- |
| CS(=O)(=O)CCNCc1ccc(-c2cc3c(Nc4ccc5c(cnn5Cc5ccccc5)c4)ncnc3cc2F)o1 | < 5 |
| COc1cc2ncnc(Nc3ccc4c(cnn4Cc4ccccc4)c3)c2cc1-c1ccc(CNCCS(C)(=O)=O)o1 | < 5 |
| COc1cc2ncnc(Nc3ccc(OCc4ccccc4)cc3)c2cc1-c1ccc(CNCCS(C)(=O)=O)o1 | < 5 |
| CS(=O)(=O)CCNCc1coc(-c2cc3c(Nc4ccc(OCc5cccc(F)c5)cc4)ncnc3cn2)c1 | < 5 |
| CS(=O)(=O)CCNCc1ccc(-c2ccc3ncnc(Nc4ccc(OCc5ccccc5)c(C(F)(F)F)c4)c3c2)o1 | < 5 |
| COc1cc(Nc2ncnc3ccc(-c4ccc(CNCCS(C)(=O)=O)o4)cc23)ccc1OCc1cccc(F)c1 | < 5 |
| CS(=O)(=O)CCNCc1ccc(-c2ccc3ncnc(Nc4ccc(OCc5cccc(F)c5)c(F)c4)c3c2)o1 | < 5 |
| CS(=O)(=O)CCNCc1nc(-c2ccc3ncnc(Nc4ccc(OCc5cccc(Br)c5)cc4)c3c2)cs1 | 25 to 50 |
| CS(=O)(=O)CCNCc1cccc(-c2cc3c(Nc4ccc(OCc5ccccc5)cc4)ncnc3cn2)c1 | < 5 |
| CS(=O)(=O)CCNCc1nc(-c2ccc3ncnc(Nc4ccc(OCc5ccccc5)c(F)c4)c3c2)cs1 | < 5 |
| CS(=O)(=O)CCNCc1ccc(-c2cc3c(Nc4ccc(S(=O)(=O)c5ccccc5)cc4)ncnc3cn2)o1 | < 5 |
| CS(=O)(=O)CCNCc1nc(-c2ccc3ncnc(Nc4ccc5c(cnn5Cc5cccc(F)c5)c4)c3c2)cs1 | < 5 |
| CS(=O)(=O)CCNCc1nc(-c2ccc3ncnc(Nc4ccc(OCc5cccc(C(F)(F)F)c5)cc4)c3c2)cs1 | < 5 |
| CS(=O)(=O)CCNCc1ccc(-c2ccc3ncnc(Nc4ccc(OCc5cccc(Br)c5)cc4)c3c2)o1 | < 5 |
| CS(=O)(=O)CCNCc1ccc(-c2cc3c(Nc4ccc(OCc5ccccc5)cc4)ncnc3cc2F)o1 | < 5 |
| COc1cc2ncnc(Nc3ccc(S(=O)(=O)c4ccccc4)cc3)c2cc1-c1ccc(CNCCS(C)(=O)=O)o1 | < 5 |

| SMILES | IC50 [µM] |
| --- | --- |
| CS(=O)(=O)CCNCc1ccc(-c2cc3c(Nc4ccc(OCc5cccc(F)c5)cc4)ncnc3cn2)o1 | < 5 |
| CS(=O)(=O)CCNCc1ccc(-c2cc3c(Nc4ccc(S(=O)(=O)c5ccccc5)cc4)ncnc3cc2F)o1 | 5 to 25 |
| CS(=O)(=O)CCNCc1ccoc1-c1ccc2ncnc(Nc3ccc(OCc4ccccc4)cc3)c2c1 | 5 to 25 |
| CS(=O)(=O)CCNCc1ccc(-c2ccc3ncnc(Nc4ccc(OCc5ccccc5)c(F)c4)c3c2)o1 | < 5 |
| CS(=O)(=O)CCNCc1ccc(-c2ccc3ncnc(Nc4ccc(OCc5ccccc5)c(Cl)c4)c3c2)o1 | < 5 |
| COc1cc(Nc2ncnc3ccc(-c4csc(CNCCS(C)(=O)=O)n4)cc23)ccc1OCc1cccc(F)c1 | 5 to 25 |
| CS(=O)(=O)CCNCc1nc(-c2ccc3ncnc(Nc4ccc(S(=O)(=O)c5ccccc5)cc4)c3c2)cs1 | < 5 |
| CS(=O)(=O)CCNCc1nc(-c2ccc3ncnc(Nc4ccc(OCc5cccc(F)c5)cc4)c3c2)cs1 | < 5 |
| CS(=O)(=O)CCNCc1coc(-c2ccc3ncnc(Nc4ccc(OCc5ccccc5)cc4)c3c2)c1 | < 5 |
| CS(=O)(=O)CCNCc1nc(-c2ccc3ncnc(Nc4ccc(OCc5cccc(F)c5)c(F)c4)c3c2)cs1 | < 5 |
| CS(=O)(=O)CCNCc1nc(-c2ccc3ncnc(Nc4ccc(OCc5ccccc5)cc4)c3c2)cs1 | < 5 |
| CS(=O)(=O)CCNCc1ccc(-c2ccc3ncnc(Nc4ccc(OCc5cccc(C(F)(F)F)c5)cc4)c3c2)o1 | 5 to 25 |
| CS(=O)(=O)CCNCc1nc(-c2ccc3ncnc(Nc4ccc5c(cnn5Cc5ccccc5)c4)c3c2)cs1 | < 5 |
| CS(=O)(=O)CCNCc1ccc(-c2cc3c(Nc4ccc(OCc5ccc(F)cc5)cc4)ncnc3cn2)o1 | < 5 |
| CS(=O)(=O)CCNCc1ccc(-c2ccc3ncnc(Nc4ccc(S(=O)(=O)c5ccccc5)cc4)c3c2)o1 | < 5 |
| CS(=O)(=O)CCNCc1ccc(-c2ccc3ncnc(Nc4ccc(OCc5cccc(F)c5)cc4)c3c2)o1 | < 5 |
